A word on the MIC: it is the lowest concentration found to suppress growth. Lower therefore signals inhibition by little substance. In general, IC50 refers to the point on the concentration scale where inhibition reaches its midpoint.

Data on 1 compound can be found in patent US20040092583A1, “Treatment for inhibiting neoplastic lesions” (priority 2001, published 2004).

Common to all, as to assay type: cell-based
The test system of assay [1] is Staphylococcus aureus NCTC 6571. The assay is described as follows: MIC, macrodilution broth procedure. The following applies: NCTC6571. The procedure: (§1) These studies were performed to determine the minimum inhibitory concentration (MIC) of incensole/furanogermacren mixture.
(§2) MIC values were determined using a macrodiluton broth procedure based on NCCLS Documents M7-A3 “Methods for dilution anti-microbial susceptibility tests for bacteria that grow aerobically-third edition, approved standard (1993).

The test system of assay [2] is Enterococcus feacalis NCTC 775. Briefly: MIC, macrodilution broth procedure. Conditions: NCTC775. The procedure: as §1, §2
The test system of a further assay is HT29 colon carcinoma. Briefly: clonogenic assay (two-layered soft agar), HT29. The following applies: Homo sapiens, HT-29, continuous exposure 5-6 days, read-out: IC50 (inhibition of colony formation by 50%). The procedure:
(§3) In vitro cytotoxic activity of extracts containing high concentrations of incensole, furanogermacren and incensole/furanogermacren mixture were determined in several cultured tumour cell lines by performing the […] clonogenic assay. This assay assesses the inhibition of colony formation of tumour stem cells growing in soft agar by cytotoxic agents. Since tumour stem cells are responsible for the proliferate potential and aggressiveness of a tumour cell population, the clonogenic assay is highly predictive of in vivo response.
(§4) The extracts were dissolved in DMSO/water 1:1, prepared as a 30 mg/ml solution and stored at −20° C. until use. […]
(§5) Human tumour cell lines were grown in RPMI 1640 supplemented with 10% fetal calf serum and 2 mM L-glutamine. […] For treatment experiments, exponentially growing cells were trypsinized, washed twice with PBS and the percentage of viable cells was determined by hemocytometer count using trypan blue viable dye exclusion.
(§6) The clonogenic assay was performed according to a modified two-layered soft agar assay. […] Cultures were incubated at 5% CO2 and 37° C. in a humidifled atmosphere for 5-6 days under continuous exposure to drugs and monitored closely for colony growth using an inverted microscope. […]
(§7) If an ID50 or IC70 value could not be determined within the examined dose range, the lowest or highest concentration studies was used for the calculation. […]

Assay [3] deals with Staphylococcus aureus NCTC 10442. The assay is described as follows: MIC, macrodilution broth procedure. Conditions: NCTC10442. The method, then: These studies were performed to determine the minimum inhibitory concentration (MIC) of incensole/furanogermacren mixture. MIC values were determined using a macrodiluton broth procedure based on NCCLS Documents M7-A3 “Methods for dilution anti-microbial susceptibility tests for bacteria that grow aerobically-third edition, approved standard (1993). […] The following organisms were tested: [table]

Assay [4] relates to PC3 Human Prostate Carcinoma. Briefly: clonogenic assay (two-layered soft agar), PC3. The following applies: continuous exposure 5-6 days, read-out: IC50 (inhibition of colony formation by 50%). The procedure: as §3, §4, §5, §6, §7

In brackets after ≈: the same amount, converted by molar mass.

`C/C1=C\C[C@]2(C(C)C)CC[C@@](C)(O2)[C@@H](O)CC/C(C)=C/CC1` [Incensole, incensole]: the MIC in assay [1], in assay [2] and in assay [3] was 38 µg/mL (≈ 124 µM) in each case. Further, the values for the IC50 (with HT29 colon carcinoma; in assay [4]) were 70 µg/mL (≈ 228 µM) and 6 µg/mL (≈ 19.6 µM), respectively.
